From patent publication US9789086B1, “N-(5-arylamido-2-methylphenyl)-5-methylisooxazole-4-carboxamide deravative, pharmaceutical acceptable salt thereof, method for preparation therof and FMS kinase inhibitor comprising the same as anactive ingredient” (Industry-University Cooperation Foundation Hanyang …, priority 2014, dated 2017)

Key:
[1] = tested on: U937 cell line; experiment: U937 cell line proliferation inhibitory activity (MTT assay); type: cell-based; details: Homo sapiens, U-937, U937 cells
Protocol: (§1) In order to measure cell viability, MTT [3-(4,5-dimethylthiazole-2-yl)-2,5-diphenyltetrazolium bromide] activity assay method (Thiazolyl Blue Tetrazolium Bromide, Sigma Aldrich) was used. Cell lines were cultured in 96-well plates for 24 hours and treated with the compounds of Examples previously prepared. For the compound treatment, 10 mM stocks were prepared, serially diluted in DMSO and added by 0.5 μL at 8 points (final concentration of 0.5%). The cell lines in plates treated with the compounds was cultured for 48 hours, then 15 μL of dye was added to each well and cultured for 4 hours. Then, 100 μL of DMSO solvent was added to each well, and the formed solid was dissolved to measure the absorbance. The absorbance was read at a wavelength of 570 nm using EnVision 2103, and the GI 50 value was calculated using GraphPad Prism 4.0 software, and the results are shown in Table 1 below.
U937 cell lines were purchased from ATCC and cultured in a RPMI culture medium (containing 10% FBS, 1% penicillin/streptomycin and 25 mM HEPES) in the presence of 5% CO2 at 37° C. The cell line proliferation inhibitory activity for Examples previously prepared was measured using the same MTT activity assay method as the A375P cell line proliferation inhibitory activity assay in Experimental Example 1.

[2] = tested on: A375P cell line; experiment: A375P cell line proliferation inhibitory activity (MTT assay); type: cell-based; details: A375P cells, 48 hours treatment
Protocol: A375P cell lines were purchased from ATCC and cultured in a DMEM culture medium (containing 10% FBS and 1% penicillin/streptomycin) in the presence of 5% CO2 at 37° C. The cultured A375P cell lines were taken from culture substrate with 0.05% trypsin-0.02% EDTA and plated at a density of 5×10^3 cells per well in 96-well plates.
as §1

SMILES | GI50 [1] | GI50 [2]
Cc1ccc(NC(=O)c2ccc(Cl)cc2)cc1NC(=O)c1cnoc1C [Example 7, N-(5-(4-chlorobenzamido)-2-methylphenyl)-5-methylisoxazole-4-carboxamide] | 10 to 30 µM | 10 to 30 µM
Cc1ccc(NC(=O)Cc2ccccc2F)cc1NC(=O)c1cnoc1C [Example 8, N-(5-(2-(2-fluorophenyl)acetamido)-2-methylphenyl)-5-methylisoxazole-4-carboxamide] | 10 to 30 µM | 10 to 30 µM
Cc1ccc(NC(=O)c2ccc3ccccc3n2)cc1NC(=O)c1cnoc1C [Example 12, 5-methyl-N-(2-methyl-5-(quinoline-2-carboxamido)phenyl)isoxazole-4-carboxamide] | 10 to 30 µM | 10 to 30 µM
Cc1ccc(NC(=O)C(c2ccc(Cl)cc2)c2ccc(Cl)cc2)cc1NC(=O)c1cnoc1C [Example 13, N-(5-(2,2-bis(4-chlorophenyl)acetamido)-2-methylphenyl)-5-methylisoxazole-4-carboxamide] | 10 to 30 µM | 10 to 30 µM
Cc1ccc(NC(=O)C2(C)CCc3c(C)c(O)c(C)c(C)c3O2)cc1NC(=O)c1cnoc1C (stereo not shown) [Example 14, N-(5-(6-hydroxy-2,5,7,8-tetramethylchroman-2-carboxamido)-2-methylphenyl)-5-methylisoxazole-4-carboxamide] | 10 to 30 µM | 10 to 30 µM
CC(=O)N1CCC(C(=O)Nc2ccc(C)c(NC(=O)c3cnoc3C)c2)CC1 [Example 15, N-(5-(1-acetylpiperidine-4-carboxamido)-2-methylphenyl)-5-methylisoxazole-4-carboxamide] | 10 to 30 µM | 10 to 30 µM
Cc1ccc(NC(=O)Cc2c[nH]c3ccccc23)cc1NC(=O)c1cnoc1C [Example 16, N-(5-(2-(1H-indol-3-yl)acetamido)-2-methylphenyl)-5-methylisoxazole-4-carboxamide] | 10 to 30 µM | 10 to 30 µM
Cc1ccc(NC(=O)c2cnccn2)cc1NC(=O)c1cnoc1C [Example 17, 5-methyl-N-(2-methyl-5-(pyrazine-2-carboxamido)phenyl)isoxazole-4-carboxamide] | 10 to 30 µM | 10 to 30 µM
Cc1ccc(NC(=O)c2ccc3[nH]nnc3c2)cc1NC(=O)c1cnoc1C [Example 18, N-(5-(1H-benzo[d][1,2,3]triazole-5-carboxamido)-2-methylphenyl)-5-methylisoxazole-4-carboxamide] | 10 to 30 µM | 10 to 30 µM
Cc1ccc(NC(=O)C2Cc3ccccc3N2)cc1NC(=O)c1cnoc1C (stereo not shown) [Example 19, N-(5-(indoline-2-carboxamido)-2-methylphenyl)-5-methylisoxazole-4-carboxamide] | 10 to 30 µM | 10 to 30 µM
Cc1ccc(NC(=O)c2ccncc2)cc1NC(=O)c1cnoc1C [Example 20, N-(5-(isonicotinamido)-2-methylphenyl)-5-methylisoxazole-4-carboxamide] | 10 to 30 µM | 10 to 30 µM
Cc1ccc(NC(=O)c2ccccc2Sc2ccccc2C#N)cc1NC(=O)c1cnoc1C [Example 21, N-(5-(2-(2-cyanophenylthio)benzamido)-2-methylphenyl)-5-methylisoxazole-4-carboxamide] | 10 to 30 µM | 10 to 30 µM
Cc1ccc(NC(=O)Cc2ccc(-c3ccccc3)cc2)cc1NC(=O)c1cnoc1C [Example 22, N-(5-(2-(biphenyl-4-yl)acetamido)-2-methylphenyl)-5-methylisoxazole-4-carboxamide] | 10 to 30 µM | 10 to 30 µM
Cc1ccc(NC(=O)c2ccccc2-c2ccccc2)cc1NC(=O)c1cnoc1C [Example 25, N-(5-biphenyl-2-ylcarboxamido-2-methylphenyl)-5-methylisoxazole-4-carboxamide] | 10 to 30 µM | 10 to 30 µM
Cc1ccc(NC(=O)c2ccc(-c3ccccc3)cc2)cc1NC(=O)c1cnoc1C [Example 26, N-(5-biphenyl-4-ylcarboxamido-2-methylphenyl)-5-methylisoxazole-4-carboxamide] | 10 to 30 µM | 10 to 30 µM
Cc1ccc(NC(=O)c2cnc3ccccc3c2)cc1NC(=O)c1cnoc1C [Example 27, 5-methyl-N-(2-methyl-5-(quinoline-3-carboxamido)phenyl)isoxazole-4-carboxamide] | 10 to 30 µM | 10 to 30 µM
Cc1ccc(NC(=O)Nc2ccc(Cl)cc2)cc1NC(=O)c1cnoc1C [Example 28, N-(5-(3-(4-chlorophenyl)ureido)-2-methylphenyl)-5-methylisoxazole-4-carboxamide] | 10 to 30 µM | 10 to 30 µM
Cc1ccc(NC(=O)Nc2cccc(C(F)(F)F)c2)cc1NC(=O)c1cnoc1C [Example 29, 5-methyl-N-(2-methyl-5-(3-(3-(trifluoromethyl)phenyl)ureido)phenyl)isoxazole-4-carboxamide] | 10 to 30 µM | 10 to 30 µM
Cc1ccc(NC(=O)Nc2ccc(Cl)c(C(F)(F)F)c2)cc1NC(=O)c1cnoc1C [Example 30, N-(5-(3-(4-chloro-3-(trifluoromethyl)phenyl)ureido)-2-methylphenyl)-5-methylisoxazole-4-carboxamide] | 10 to 30 µM | 10 to 30 µM
Cc1ccc(NC(=O)Nc2ccccc2F)cc1NC(=O)c1cnoc1C [Example 31, N-(5-(3-(2-fluorophenyl)ureido)-2-methylphenyl)-5-methylisoxazole-4-carboxamide] | 10 to 30 µM | 10 to 30 µM
Cc1ccc(NC(=O)Nc2cccc(Cl)c2)cc1NC(=O)c1cnoc1C [Example 32, N-(5-(3-(3-chlorophenyl)ureido)-2-methylphenyl)-5-methylisoxazole-4-carboxamide] | 10 to 30 µM | 10 to 30 µM
Cc1ccc(NC(=O)Nc2cc(Cl)cc(Cl)c2)cc1NC(=O)c1cnoc1C [Example 33, N-(5-(3-(3,5-dichlorophenyl)ureido)-2-methylphenyl)-5-methylisoxazole-4-carboxamide] | 10 to 30 µM | 10 to 30 µM

Now from value to compound:

GI50 [1] | GI50 [2] | SMILES
10 to 30 µM | 10 to 30 µM | Cc1cc(NC(=O)c2ccc(N3CCOCC3)c(C(F)(F)F)c2)ccc1NC(=O)c1cnoc1C [Example 1, 5-methyl-N-(2-methyl-4-(4-morpholino-3-(trifluoromethyl)benzamido)phenyl)isoxazole-4-carboxamide]
10 to 30 µM | 10 to 30 µM | Cc1cc(NC(=O)c2cc(N3CCN(C)CC3)cc(C(F)(F)F)c2)ccc1NC(=O)c1cnoc1C [Example 2, 5-methyl-N-(2-methyl-4-(3-(4-methylpiperazin-1-yl)-5-(trifluoromethyl)benzamido)phenyl)isoxazole-4-carboxamide]
< 1 µM | 10 to 30 µM | Cc1ccc(NC(=O)c2cc(N3CCN(C)CC3)cc(C(F)(F)F)c2)cc1NC(=O)c1cnoc1C [Example 3, 5-methyl-N-(2-methyl-5-(3-(4-methylpiperazin-1-yl)-5-(trifluoromethyl)benzamido)phenyl)isoxazole-4-carboxamide]
< 1 µM | 10 to 30 µM | Cc1ccc(NC(=O)c2ccc(N3CCOCC3)c(C(F)(F)F)c2)cc1NC(=O)c1cnoc1C [Example 4, 5-methyl-N-(2-methyl-5-(4-morpholino-3-(trifluoromethyl)benzamido)phenyl)isoxazole-4-carboxamide]
10 to 30 µM | 10 to 30 µM | Cc1ccc(NC(=O)c2cccc(Cl)c2)cc1NC(=O)c1cnoc1C [Example 6, N-(5-(3-chlorobenzamido)-2-methylphenyl)-5-methylisoxazole-4-carboxamide]
< 1 µM | 10 to 30 µM | Cc1ccc(NC(=O)c2cc(-n3ccnc3C)cc(C(F)(F)F)c2)cc1NC(=O)c1cnoc1C [Example 9, 5-methyl-N-(2-methyl-5-(3-(2-methyl-1H-imidazol-1-yl)-5-(trifluoromethyl)benzamido)phenyl)isoxazole-4-carboxamide]
< 1 µM | 10 to 30 µM | Cc1ccc(NC(=O)c2cc(-n3cncc3C)cc(C(F)(F)F)c2)cc1NC(=O)c1cnoc1C [Example 10, 5-methyl-N-(2-methyl-5-(3-(5-methyl-1H-imidazol-1-yl)-5-(trifluoromethyl)benzamido)phenyl)isoxazole-4-carboxamide]
< 1 µM | 10 to 30 µM | Cc1cn(-c2cc(C(=O)Nc3ccc(C)c(NC(=O)c4cnoc4C)c3)cc(C(F)(F)F)c2)cn1 [Example 11, 5-methyl-N-(2-methyl-5-(3-(4-methyl-1H-imidazol-1-yl)-5-(trifluoromethyl)benzamido)phenyl)isoxazole-4-carboxamide]
< 1 µM | 10 to 30 µM | Cc1ccc(NC(=O)c2cnn(-c3ccccc3)c2C(F)(F)F)cc1NC(=O)c1cnoc1C [Example 23, 5-methyl-N-(2-methyl-5-(1-phenyl-5-(trifluoromethyl)-1H-pyrazole-4-carboxamido)phenyl)isoxazole-4-carboxamide]
1 to 10 µM | 10 to 30 µM | Cc1cc(C)cc(C(=O)Nc2ccc(C)c(NC(=O)c3cnoc3C)c2)c1 [Example 24, N-(5-(3,5-dimethylbenzamido)-2-methylphenyl)-5-methylisoxazole-4-carboxamide]
